Laboratory results reported in ChEMBL document CHEMBL1201862, “PubChem BioAssay data set” (2004).
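96-well plates; 48 h exposure; 5 concentrations. Endpoints by linear interpolation between flanking doses. Not reached: highest tested concentration assigned. At the GI50, growth is halved.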 Activity calls are given as the source filed them. Cut-off read from the data, not from the text of the source: active = GI50 up to about 1.1 µM and inactive = higher.

How the values were obtained:
Assay in all cases: DTP human tumour cell line panel, 48 h
[1] = test system: 786-0
[2] = test system: A498
[3] = test system: A549
[4] = test system: ACHN
[5] = test system: BT-549
[6] = test system: CAKI-1
[7] = test system: COLO 205
[8] = test system: DU-145
[9] = test system: EKVX
[10] = test system: HCC 2998
[11] = test system: HCT-116
[12] = test system: HCT-15
[13] = test system: HL-60
[14] = test system: HOP-62
[15] = test system: HOP-92
[16] = test system: HT-29
[17] = test system: Hs-578T
[18] = test system: IGROV-1
[19] = test system: K562
[20] = test system: KM12
[21] = test system: LOX IMVI
[22] = test system: M14
[23] = test system: MCF7
[24] = test system: MDA-MB-231
[25] = test system: MDA-MB-435
[26] = test system: MDA-N
[27] = test system: MOLT-4
[28] = test system: Malme-3M
[29] = test system: NCI-H226
[30] = test system: NCI-H23
[31] = test system: NCI-H460
[32] = test system: NCI-H522
[33] = test system: NCI/ADR-RES
[34] = test system: OVCAR-3
[35] = test system: OVCAR-4
[36] = test system: OVCAR-5
[37] = test system: OVCAR-8
[38] = test system: PC-3
[39] = test system: RPMI-8226
[40] = test system: RXF 393
[41] = test system: SF-268
[42] = test system: SF-295
[43] = test system: SF-539
[44] = test system: SK-MEL-28
[45] = test system: SK-MEL-2
[46] = test system: SK-MEL-5
[47] = test system: SN12C
[48] = test system: SNB-19
[49] = test system: SR
[50] = test system: SW-620
[51] = test system: TK-10
[52] = test system: U-251
[53] = test system: UACC-257
[54] = test system: UACC-62
[55] = test system: UO-31
[56] = test system: CCRF-CEM
[57] = test system: SK-OV-3
[58] = test system: SNB-75
[59] = test system: T47D

COc1ccc(-c2c(C#N)c(N)nc(S)c2C#N)cc1
GI50 [1]: 21.1 µM (inactive) | GI50 [2]: > 100 µM (inactive) | GI50 [3]: 48.4 µM (inactive) | GI50 [4]: 71 µM (inactive) | GI50 [5]: 24.9 µM (inactive) | GI50 [6]: 42.4 µM (inactive) | GI50 [7]: 30.1 µM (inactive) | GI50 [8]: 34.8 µM (inactive) | GI50 [9]: 36.1 µM (inactive) | GI50 [10]: 23.4 µM (inactive) | GI50 [11]: 29.4 µM (inactive) | GI50 [12]: 33.3 µM | GI50 [13]: 23.1 µM (inactive) | GI50 [14]: 55.1 µM (inactive) | GI50 [15]: 40.6 µM (inactive) | GI50 [16]: 48.6 µM (inactive) | GI50 [17]: 19.1 µM (inactive) | GI50 [18]: 24.7 µM (inactive) | GI50 [19]: 26.5 µM (inactive) | GI50 [20]: 41.8 µM (inactive) | GI50 [21]: 43.5 µM (inactive) | GI50 [22]: 30 µM (inactive) | GI50 [23]: 39.2 µM (inactive) | GI50 [24]: 26.1 µM (inactive) | GI50 [25]: 17.3 µM (inactive) | GI50 [26]: 11.5 µM (inactive) | GI50 [27]: 17.1 µM (inactive) | GI50 [28]: 29.9 µM (inactive) | GI50 [29]: 21.1 µM (inactive) | GI50 [30]: 38.3 µM (inactive) | GI50 [31]: 31 µM (inactive) | GI50 [32]: 20.5 µM (inactive) | GI50 [33]: 50 µM (inactive) | GI50 [34]: 64.7 µM (inactive) | GI50 [35]: > 100 µM (inactive) | GI50 [36]: > 100 µM (inactive) | GI50 [37]: 36.7 µM (inactive) | GI50 [38]: 27.5 µM (inactive) | GI50 [39]: 21.5 µM (inactive) | GI50 [40]: 33.2 µM (inactive) | GI50 [41]: 30.7 µM (inactive) | GI50 [42]: 27.6 µM (inactive) | GI50 [43]: 38.9 µM (inactive) | GI50 [44]: 37.7 µM (inactive) | GI50 [45]: 36.1 µM (inactive) | GI50 [46]: 26.2 µM (inactive) | GI50 [47]: 29.1 µM (inactive) | GI50 [48]: 57.7 µM (inactive) | GI50 [49]: 18.3 µM (inactive) | GI50 [50]: 22.2 µM (inactive) | GI50 [51]: 71.3 µM (inactive) | GI50 [52]: 40.5 µM (inactive) | GI50 [53]: 44.6 µM (inactive) | GI50 [54]: 41.5 µM (inactive) | GI50 [55]: 34.9 µM (inactive)

Cc1c(O)c(OC2OC(CO)C(O)C(O)C2O)cc2c1C=C[C@@H]1[C@@]2(C)C(=O)C[C@]2(C)[C@@H]([C@@](C)(O)C(O)/C=C/C(C)(C)O)[C@H](O)C[C@@]12C (some centres not stated)
GI50 [1]: > 100 µM (inactive) | GI50 [2]: > 100 µM (inactive) | GI50 [3]: > 100 µM (inactive) | GI50 [4]: > 100 µM (inactive) | GI50 [5]: > 100 µM (inactive) | GI50 [6]: > 100 µM (inactive) | GI50 [56]: > 100 µM (inactive) | GI50 [7]: > 100 µM (inactive) | GI50 [8]: > 100 µM (inactive) | GI50 [9]: > 100 µM (inactive) | GI50 [10]: > 100 µM (inactive) | GI50 [11]: > 100 µM (inactive) | GI50 [12]: > 100 µM | GI50 [13]: > 100 µM (inactive) | GI50 [14]: > 100 µM (inactive) | GI50 [15]: > 100 µM (inactive) | GI50 [16]: > 100 µM (inactive) | GI50 [18]: > 100 µM (inactive) | GI50 [19]: > 100 µM (inactive) | GI50 [20]: > 100 µM (inactive) | GI50 [21]: > 100 µM (inactive) | GI50 [22]: > 100 µM (inactive) | GI50 [23]: > 100 µM (inactive) | GI50 [24]: > 100 µM (inactive) | GI50 [25]: > 100 µM (inactive) | GI50 [26]: > 100 µM (inactive) | GI50 [27]: > 100 µM (inactive) | GI50 [28]: > 100 µM (inactive) | GI50 [29]: > 100 µM (inactive) | GI50 [30]: > 100 µM (inactive) | GI50 [31]: > 100 µM (inactive) | GI50 [32]: > 100 µM (inactive) | GI50 [33]: > 100 µM (inactive) | GI50 [34]: > 100 µM (inactive) | GI50 [35]: > 100 µM (inactive) | GI50 [36]: > 100 µM (inactive) | GI50 [37]: > 100 µM (inactive) | GI50 [38]: > 100 µM (inactive) | GI50 [40]: > 100 µM (inactive) | GI50 [41]: > 100 µM (inactive) | GI50 [42]: > 100 µM (inactive) | GI50 [43]: > 100 µM (inactive) | GI50 [44]: > 100 µM (inactive) | GI50 [45]: > 100 µM (inactive) | GI50 [46]: > 100 µM (inactive) | GI50 [57]: > 100 µM (inactive) | GI50 [47]: > 100 µM (inactive) | GI50 [48]: > 100 µM (inactive) | GI50 [58]: > 100 µM (inactive) | GI50 [49]: > 100 µM (inactive) | GI50 [50]: > 100 µM (inactive) | GI50 [59]: > 100 µM (inactive) | GI50 [51]: > 100 µM (inactive) | GI50 [52]: > 100 µM (inactive) | GI50 [53]: > 100 µM (inactive) | GI50 [54]: > 100 µM (inactive) | GI50 [55]: > 100 µM (inactive)
